The source made the active and inactive calls. No rule for the calls is given here.
Tested on: CCRIS mutagenicity, Ames/micronucleus/aberration tests
Test: CCRIS mutagenicity studies
[1] = Test System: AMES SALMONELLA TYPHIMURIUM, Strain/Indicator: TA98, Metabolic Activation: NONE, Method: PREINCUBATION
[2] = Test System: AMES SALMONELLA TYPHIMURIUM, Strain/Indicator: TA100, Metabolic Activation: NONE, Method: PREINCUBATION
[3] = Test System: AMES SALMONELLA TYPHIMURIUM, Strain/Indicator: TA98, Metabolic Activation: HAMSTER, LIVER, S-9, AROCLOR 1254 (10%), Method: PREINCUBATION
[4] = Test System: AMES SALMONELLA TYPHIMURIUM, Strain/Indicator: TA98, Metabolic Activation: RAT, LIVER, S-9, AROCLOR 1254 (10%), Method: PREINCUBATION
[5] = Test System: AMES SALMONELLA TYPHIMURIUM, Strain/Indicator: TA100, Metabolic Activation: HAMSTER, LIVER, S-9, AROCLOR 1254 (10%), Method: PREINCUBATION
[6] = Test System: AMES SALMONELLA TYPHIMURIUM, Strain/Indicator: TA100, Metabolic Activation: RAT, LIVER, S-9, AROCLOR 1254 (10%), Method: PREINCUBATION
[7] = Test System: AMES SALMONELLA TYPHIMURIUM, Strain/Indicator: TA1535, Metabolic Activation: HAMSTER, LIVER, S-9, AROCLOR 1254 (10%), Method: PREINCUBATION
[8] = Test System: AMES SALMONELLA TYPHIMURIUM, Strain/Indicator: TA1535, Metabolic Activation: NONE, Method: PREINCUBATION
[9] = Test System: AMES SALMONELLA TYPHIMURIUM, Strain/Indicator: TA1535, Metabolic Activation: RAT, LIVER, S-9, AROCLOR 1254 (10%), Method: PREINCUBATION
[10] = Test System: AMES SALMONELLA TYPHIMURIUM, Strain/Indicator: TA1537, Metabolic Activation: HAMSTER, LIVER, S-9, AROCLOR 1254 (10%), Method: PREINCUBATION
[11] = Test System: AMES SALMONELLA TYPHIMURIUM, Strain/Indicator: TA1537, Metabolic Activation: NONE, Method: PREINCUBATION
[12] = Test System: AMES SALMONELLA TYPHIMURIUM, Strain/Indicator: TA1537, Metabolic Activation: RAT, LIVER, S-9, AROCLOR 1254 (10%), Method: PREINCUBATION

CCOC(=O)NCCOc1ccc(Oc2ccccc2)cc1
mutagenic call (Test System: Ames Salmonella typhimurium, Strain/Indicator: TA97, Metabolic Activation: None, Method: Plate incorporation): inactive; negative | mutagenic call (Test System: Ames Salmonella typhimurium, Strain/Indicator: TA97, Metabolic Activation: None, Method: Preincubation): inactive; negative | mutagenic call (Test System: Ames Salmonella typhimurium, Strain/Indicator: TA97, Metabolic Activation: Rat, Liver, S-9, Phenobarbital and beta-naphthoflavone, Method: Plate incorporation): inactive; negative | mutagenic call (Test System: Ames Salmonella typhimurium, Strain/Indicator: TA97, Metabolic Activation: Rat, Liver, S-9, Phenobarbital and beta-naphthoflavone, Method: Preincubation): inactive; negative | mutagenic call (Test System: Ames Salmonella typhimurium, Strain/Indicator: TA98, Metabolic Activation: None, Method: Plate incorporation): inactive; negative | mutagenic call (Test System: Ames Salmonella typhimurium, Strain/Indicator: TA98, Metabolic Activation: None, Method: Preincubation): inactive; negative | mutagenic call (Test System: Ames Salmonella typhimurium, Strain/Indicator: TA98, Metabolic Activation: Rat, Liver, S-9, Phenobarbital and beta-naphthoflavone, Method: Plate incorporation): inactive; negative | mutagenic call (Test System: Ames Salmonella typhimurium, Strain/Indicator: TA98, Metabolic Activation: Rat, Liver, S-9, Phenobarbital and beta-naphthoflavone, Method: Preincubation): inactive; negative | mutagenic call (Test System: Ames Salmonella typhimurium, Strain/Indicator: TA100, Metabolic Activation: None, Method: Plate incorporation): inactive; negative | mutagenic call (Test System: Ames Salmonella typhimurium, Strain/Indicator: TA100, Metabolic Activation: None, Method: Preincubation): inactive; negative | mutagenic call (Test System: Ames Salmonella typhimurium, Strain/Indicator: TA100, Metabolic Activation: Rat, Liver, S-9, Phenobarbital and beta-naphthoflavone, Method: Plate incorporation): inactive; negative | mutagenic call (Test System: Ames Salmonella typhimurium, Strain/Indicator: TA100, Metabolic Activation: Rat, Liver, S-9, Phenobarbital and beta-naphthoflavone, Method: Preincubation): inactive; negative | mutagenic call (Test System: Ames Salmonella typhimurium, Strain/Indicator: TA102, Metabolic Activation: None, Method: Plate incorporation): inactive; negative | mutagenic call (Test System: Ames Salmonella typhimurium, Strain/Indicator: TA102, Metabolic Activation: None, Method: Preincubation): inactive; negative | mutagenic call (Test System: Ames Salmonella typhimurium, Strain/Indicator: TA102, Metabolic Activation: Rat, Liver, S-9, Phenobarbital and beta-naphthoflavone, Method: Plate incorporation): inactive; negative | mutagenic call (Test System: Ames Salmonella typhimurium, Strain/Indicator: TA102, Metabolic Activation: Rat, Liver, S-9, Phenobarbital and beta-naphthoflavone, Method: Preincubation): inactive; negative | mutagenic call (Test System: Ames Salmonella typhimurium, Strain/Indicator: TA1535, Metabolic Activation: None, Method: Plate incorporation): inactive; negative | mutagenic call (Test System: Ames Salmonella typhimurium, Strain/Indicator: TA1535, Metabolic Activation: None, Method: Preincubation): inactive; negative | mutagenic call (Test System: Ames Salmonella typhimurium, Strain/Indicator: TA1535, Metabolic Activation: Rat, Liver, S-9, Phenobarbital and beta-naphthoflavone, Method: Plate incorporation): inactive; negative | mutagenic call (Test System: Ames Salmonella typhimurium, Strain/Indicator: TA1535, Metabolic Activation: Rat, Liver, S-9, Phenobarbital and beta-naphthoflavone, Method: Preincubation): inactive; negative | mutagenic call (Test System: Ames Salmonella typhimurium, Strain/Indicator: TA1537, Metabolic Activation: None, Method: Plate incorporation): inactive; negative | mutagenic call (Test System: Ames Salmonella typhimurium, Strain/Indicator: TA1537, Metabolic Activation: None, Method: Preincubation): inactive; negative | mutagenic call (Test System: Ames Salmonella typhimurium, Strain/Indicator: TA1537, Metabolic Activation: Rat, Liver, S-9, Phenobarbital and beta-naphthoflavone, Method: Plate incorporation): inactive; negative | mutagenic call (Test System: Ames Salmonella typhimurium, Strain/Indicator: TA1537, Metabolic Activation: Rat, Liver, S-9, Phenobarbital and beta-naphthoflavone, Method: Preincubation): inactive; negative | mutagenic call (Test System: Ames Salmonella typhimurium, Strain/Indicator: TA1538, Metabolic Activation: None, Method: Plate incorporation): inactive; negative | mutagenic call (Test System: Ames Salmonella typhimurium, Strain/Indicator: TA1538, Metabolic Activation: None, Method: Preincubation): inactive; negative | mutagenic call (Test System: Ames Salmonella typhimurium, Strain/Indicator: TA1538, Metabolic Activation: Rat, Liver, S-9, Phenobarbital and beta-naphthoflavone, Method: Plate incorporation): inactive; negative | mutagenic call (Test System: Ames Salmonella typhimurium, Strain/Indicator: TA1538, Metabolic Activation: Rat, Liver, S-9, Phenobarbital and beta-naphthoflavone, Method: Preincubation): inactive; negative

[NH-]CCC(=O)[N-][C@@H](Cc1cnc[nH]1)C(=O)[O-].[Zn+2]
mutagenic call (Test System: AMES SALMONELLA TYPHIMURIUM, Strain/Indicator: SD100, Metabolic Activation: NONE, Method: PREINCUBATION): inactive; negative | mutagenic call (Test System: AMES SALMONELLA TYPHIMURIUM, Strain/Indicator: SD100, Metabolic Activation: RAT, LIVER, S-9, AROCLOR 1254, Method: PREINCUBATION): inactive; negative | mutagenic call (Test System: AMES SALMONELLA TYPHIMURIUM, Strain/Indicator: TM677, Metabolic Activation: NONE, Method: PREINCUBATION): inactive; negative | mutagenic call (Test System: AMES SALMONELLA TYPHIMURIUM, Strain/Indicator: TM677, Metabolic Activation: RAT, LIVER, S-9, AROCLOR 1254, Method: PREINCUBATION): inactive; negative | mutagenic call (Test System: E. COLI, Strain/Indicator: WP2 UVRA, Metabolic Activation: NONE, Method: PREINCUBATION): inactive; negative | mutagenic call (Test System: E. COLI, Strain/Indicator: WP2 UVRA, Metabolic Activation: RAT, LIVER, S-9, AROCLOR 1254, Method: PREINCUBATION): inactive; negative

CC(=O)OCc1cccc([N+](=O)[O-])c1
mutagenic call [1]: inactive; negative | mutagenic call [2]: inactive; negative | mutagenic call (Test System: AMES SALMONELLA TYPHIMURIUM, Strain/Indicator: TA100, Metabolic Activation: RAT, LIVER, S-9, AROCLOR 1254, Method: PREINCUBATION): inactive; negative

COCCOCCOC
mutagenic call [3]: inactive; negative | mutagenic call [1]: inactive; negative | mutagenic call [4]: inactive; negative | mutagenic call [5]: inactive; negative | mutagenic call [2]: inactive; negative | mutagenic call [6]: inactive; negative | mutagenic call [7]: inactive; negative | mutagenic call [8]: inactive; negative | mutagenic call [9]: inactive; negative | mutagenic call [10]: inactive; negative | mutagenic call [11]: inactive; negative | mutagenic call [12]: inactive; negative

CC(C)NC(C)C
mutagenic call [3]: inactive; negative | mutagenic call [1]: inactive; negative | mutagenic call [4]: inactive; negative | mutagenic call [5]: inactive; negative | mutagenic call [2]: inactive; negative | mutagenic call [6]: inactive; negative | mutagenic call [7]: inactive; negative | mutagenic call [8]: inactive; negative | mutagenic call [9]: inactive; negative | mutagenic call [10]: inactive; negative | mutagenic call [11]: inactive; negative | mutagenic call [12]: inactive; negative

CC(OP(=O)(OC(C)C(Br)CBr)OC(C)C(Br)CBr)C(Br)CBr (stereo not drawn)
mutagenic call (Test System: AMES SALMONELLA TYPHIMURIUM, Strain/Indicator: TA100, Metabolic Activation: RAT, LIVER, MICROSOMES, PHENOBARBITAL, Method: PREINCUBATION): active; positive | mutagenic call (Test System: AMES SALMONELLA TYPHIMURIUM, Strain/Indicator: TA100, Metabolic Activation: RAT, LIVER, MICROSOMES, Method: PREINCUBATION): active; positive

Source: PubChem BioAssay AID1259407 (Chemical Carcinogenesis Research Information System (CCRIS), 2018)
